Molecules are shown by their SMILES.

For 18 molecules, inhibition results are on record in patent US8455475B2 (Gruenenthal GmbH, priority 2009, dated 2013).

The target of this experiment is T1, rat B1R (bradykinin receptor 1) (Rattus norvegicus, UniProt P97583).
T1 construct: expressed in transfected cells; host or cells: CHO K1 cells
T1 sequence (P97583 1-337): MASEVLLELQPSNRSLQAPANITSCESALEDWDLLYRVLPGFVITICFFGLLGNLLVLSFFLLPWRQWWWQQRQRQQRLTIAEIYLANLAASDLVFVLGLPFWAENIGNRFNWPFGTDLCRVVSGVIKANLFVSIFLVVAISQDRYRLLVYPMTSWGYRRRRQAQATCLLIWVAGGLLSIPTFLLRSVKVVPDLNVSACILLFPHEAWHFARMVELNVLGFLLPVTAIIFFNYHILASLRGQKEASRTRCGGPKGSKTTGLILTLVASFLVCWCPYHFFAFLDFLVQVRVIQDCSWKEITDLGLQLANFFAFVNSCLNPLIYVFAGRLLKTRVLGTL
Kind of experiment: FLIPR Ca2+ assay (Fluo-4) on CHO K1 cells stably transfected with the B1R gene of the rat (rB1R cells): % inhibition at 10 μM / IC50, agonist Des-Arg9-bradykinin. In kind it is cell-based. The following applies: CHO-K1, rat B1R. As to the method: The agonistic or antagonistic action of substances can be quantified on the bradykinin receptor 1 (B1R) of the human and rat species with ectopically expressing cell lines (CHO K1 cells) and with the aid of a Ca^2+-sensitive dyestuff (Fluo-4) in a fluorescent imaging plate reader (FLIPR). The figure in % activation is based on the Ca^2+ signal after addition of Lys-Des-Arg^9-bradykinin (0.5 nM) or Des-Arg^9-bradykinin (100 nM). Antagonists lead to a suppression of the Ca^2+ inflow after addition of the agonist. % inhibition compared with the maximum achievable inhibition is stated.
The agonistic or antagonistic action of substances can be determined on the bradykinin receptor 1 (B1R) of the human and rat species with the following assay. In accordance with this assay, the Ca^2+ inflow through the channel is quantified with the aid of a Ca^2+-sensitive dyestuff (type Fluo-4, Molecular Probes Europe BV, Leiden, Holland) in a fluorescent imaging plate reader (FLIPR, Molecular Devices, Sunnyvale, USA).
Chinese hamster ovary cells (CHO K1 cells) transfected stably with the human B1R gene (hB1R cells) or the B1R gene of the rat (rB1R cells) are used. For functional studies, these cells are plated out on black 96-well plates with a clear base (BD Biosciences, Heidelberg, Germany or Greiner, Frickenhausen, Germany) in a density of 20,000-35,000 cells/well. The cells are left overnight at 37° C. and 5% CO2 in culture medium (hB1R cells: Nutrient Mixture Ham's F12, Gibco Invitrogen GmbH, Karlsruhe, Germany or DMEM, Sigma-Aldrich, Taufkirchen, Germany; rB1R cells: D-MEM/F12, Gibco Invitrogen GmbH, Karlsruhe, Germany) with 10 vol. % FBS (foetal bovine serum, Gibco Invitrogen GmbH, Karlsruhe, Germany or PAN Biotech GmbH, Aidenbach, Germany). On the following day, the cells are loaded for 60 min at 37° C. with 2.13 μM Fluo-4 (Molecular Probes Europe BV, Leiden Holland) in HBSS buffer (Hank's buffered saline solution, Gibco Invitrogen GmbH, Karlsruhe, Germany) with 2.5 mM probenecid (Sigma-Aldrich, Taufkirchen, Germany) and 10 mM HEPES (Sigma-Aldrich, Taufkirchen, Germany). The plates are then washed 2× with HBSS buffer, and HBSS buffer which additionally contains 0.1% BSA (bovine serum albumin; Sigma-Aldrich, Taufkirchen, Germany), 5.6 mM glucose and 0.05% gelatine (Merck KGaA, Darmstadt, Germany) is added. After a further incubation of 20 minutes at room temperature, the plates are inserted into the FLIPR for the Ca^2+ measurement. Alternatively, the plates are washed with buffer A (15 mM HEPES, 80 mM NaCl, 5 mM KCl, 1.2 mM CaCl2, 0.7 mM MgSO4, 2 g/l glucose, 2.5 mM probenecid), buffer A is added and the plates are loaded with 2.5 μM Fluo-4 and 0.025% Pluronic F127 (Sigma-Aldrich, Taufkirchen, Germany). Thereafter, the cells are washed 2× with buffer A and incubated for 30 minutes at room temperature with buffer A, which additionally contains 0.05% BSA and 0.05% gelatine, and thereafter inserted into the FLIPR for the Ca^2+ measurement. The Ca^2+-dependent fluorescence is measured here before and after addition of substances (λex=488 nm, λem=540 nm). Quantification is by measurement of the highest fluorescence intensity (FC, fluorescence counts) over time.
The FLIPR protocol consists of 2 additions of substance. Test substances (10 μM) are first pipetted on to the cells and the Ca^2+ inflow is compared with the control (hB1R: Lys-Des-Arg^9-bradykinin>=50 nM; rB1R: Des-Arg^9-bradykinin 10 μM). This gives the result in % activation based on the Ca^2+ signal after addition of Lys-Des-Arg^9-bradykinin (>=50 nM) or Des-Arg^9-bradykinin (10 μM). After incubation for 10-20 minutes, Lys-Des-Arg^9-bradykinin (hB1R) or Des-Arg^9-bradykinin (rB1R) in the concentration of the EC80 is applied and the inflow of Ca^2+ is likewise determined. Antagonists lead to a suppression of the Ca^2+ inflow. % inhibition compared with the maximum achievable inhibition is calculated.
For determination of the IC50 value, the substances are added in various concentrations. […]
By inhibition is commonly meant the drop in the measured response relative to a control, in per cent. Take `O=C(NC1CCc2ccc(C(=O)N3CCC4(CC3)CCN(c3ccc(C(F)(F)F)cc3)CC4)cc21)c1c(Cl)cccc1Cl` (stereo not drawn) [IND_CC-286, 2,6-Dichloro-N-[6-[9-[4-(trifluoromethyl)-phenyl]-3,9-diazaspiro[5.5]undecane-3-carbonyl]-2,3-dihydro-1H-inden-1-yl]-benzamide]: the inhibition at 10 µM turned out to be 90%.
The result for `Cc1cc(F)ccc1S(=O)(=O)NC1c2cc(C(=O)N3CCC4(CC3)CCN(c3ccncc3)CC4)ccc2CC1(C)C` (stereo not drawn) [IND_CC-338, N-[2,2-Dimethyl-6-(9-pyridin-4-yl-3,9-diazaspiro[5.5]undecane-3-carbonyl)-1,3-dihydro-inden-1-yl]-4-fluoro-2-methyl-benzenesulfonic acid amide] reads 103%; that for `O=C(NC1CCc2ccc(C(=O)N3CCC4(CCN(Cc5cc(F)ccc5F)CC4)C3)cc21)c1cc(C(F)(F)F)ccc1Cl` (stereo not drawn) [IND_CC-634, 2-Chloro-N-[6-[8-[(2,5-difluoro-phenyl)-methyl]-2,8-diazaspiro[4.5]decane-2-carbonyl]-2,3-dihydro-1H-inden-1-yl]-5-(trifluoromethyl)-benzamide], 75%; that for `COc1cc(C)c(S(=O)(=O)NC2CCc3ccc(C(=O)N4CCC5(CCN(c6ccncc6)CC5)C4)cc32)c(C)c1` (stereo not drawn) [Ind_CC-087, 4-methoxy-2,6-dimethyl-N-[6-(8-pyridin-4-yl-2,8-diazaspiro[4.5]decane-2-carbonyl)-2,3-dihydro-1H-inden-1-yl]-benzenesulfonic acid amide], 100%.
Then `CN(C(=O)c1ccccc1Cl)C1CCc2ccc(C(=O)N3CCC4(CCN(C(=O)c5ccc(F)cc5Cl)CC4)C3)cc21` (stereo not drawn) [IND_CC-591, 2-Chloro-N-[6-[8-(2-chloro-4-fluoro-benzoyl)-2,8-diazaspiro[4.5]decane-2-carbonyl]-2,3-dihydro-1H-inden-1-yl]-N-methyl-benzamide], with 62%.
The result for `O=C(NC1CCc2ccc(C(=O)N3CCC4(CC3)CCN(c3ccncc3)CC4)cc21)c1ccc(F)cc1C(F)(F)F` (stereo not drawn) [IND_CC-379, 4-Fluoro-N-[6-(9-pyridin-4-yl-3,9-diazaspiro[5.5]undecane-3-carbonyl)-2,3-dihydro-1H-inden-1-yl]-2-(trifluoromethyl)-benzamide] reads 103%; that for `O=C(c1ccc2c(c1)C(NS(=O)(=O)Cc1cccc(Cl)c1)CC2)N1CCC2(CCN(c3ccncc3)CC2)C1` (stereo not drawn) [IND_CC-360, 1-(3-Chlorophenyl)-N-[6-(8-pyridin-4-yl-2,8-diazaspiro[4.5]decane-2-carbonyl)-2,3-dihydro-1H-inden-1-yl]-methanesulfonic acid amide], 69%; that for `CC(=O)NC1CCc2ccc(C(=O)N3CCC4(CCN(c5ccncc5)CC4)C3)cc21` (stereo not drawn) [IND_CC-375, N-[6-(8-Pyridin-4-yl-2,8-diazaspiro[4.5]decane-2-carbonyl)-2,3-dihydro-1H-inden-1-yl]-acetamide], 59%.
`COc1cccc(F)c1CN1CCC2(CC1)CCN(C(=O)c1ccc3c(c1)C(N1Cc4c(c5c(Cl)cccc5n4C)C1=O)CC3)C2` (stereo not drawn) [IND_CC-795, 8-Chloro-2-[6-[8-[(2-fluoro-6-methoxy-phenyl)-methyl]-2,8-diazaspiro[4.5]-decane-2-carbonyl]-2,3-dihydro-1H-inden-1-yl]-4-methyl-3,4-dihydro-2H-pyrrolo[3,4-b]indol-1-one]: the inhibition at 10 µM came to 54%.
Then `CC(C)CN1CCC2(CC1)CCN(C(=O)c1ccc3c(c1)C(NC(=O)c1cccc(Cl)c1Cl)CC3)C2` (stereo not drawn) [IND_CC-747, 2,3-Dichloro-N-[6-[8-(2-methyl-propyl)-2,8-diazaspiro[4.5]decane-2-carbonyl]-2,3-dihydro-1H-inden-1-yl]-benzamide], with 59%.
Turning to `O=C(c1ccc2c(c1)C(N(C(=O)c1ccccc1Cl)C1CC1)CC2)N1CCC2(CCN(Cc3ccc(F)cc3Cl)CC2)C1` (stereo not drawn) [IND_CC-537, 2-Chloro-N-[6-[8-[(2-chloro-4-fluoro-phenyl)-methyl]-2,8-diazaspiro[4.5]-decane-2-carbonyl]-2,3-dihydro-1H-inden-1-yl]-N-cyclopropyl-benzamide], the inhibition at 10 µM amounted to 62%.
For `O=C(NC1CCc2ccc(C(=O)N3CCC4(CCN(Cc5ccc6nccnc6c5)CC4)C3)cc21)c1cc(C(F)(F)F)ccc1Cl` (stereo not drawn) [IND_CC-685, 2-Chloro-N-[6-[8-(quinoxalin-6-yl-methyl)-2,8-diazaspiro[4.5]decane-2-carbonyl]-2,3-dihydro-1H-inden-1-yl]-5-(trifluoromethyl)-benzamide], the inhibition at 10 µM was 68%.
The result for `O=C(c1ccc2c(c1)C(N(C(=O)c1ccccc1Cl)C1CC1)CC2)N1CCC2(CCN(Cc3c(F)cccc3Cl)CC2)C1` (stereo not drawn) [IND_CC-538, 2-Chloro-N-[6-[8-[(2-chloro-6-fluoro-phenyl)-methyl]-2,8-diazaspiro[4.5]-decane-2-carbonyl]-2,3-dihydro-1H-inden-1-yl]-N-cyclopropyl-benzamide] reads 72%; that for `N#Cc1ccc(CN2CCC3(CC2)CCN(C(=O)c2ccc4c(c2)C(NC(=O)c2cc(Cl)ccc2F)CC4)C3)cc1` (stereo not drawn) [IND_CC-650, 5-Chloro-N-[6-[8-[(4-cyano-phenyl)-methyl]-2,8-diazaspiro[4.5]decane-2-carbonyl]-2,3-dihydro-1H-inden-1-yl]-2-fluoro-benzamide], 54%.
The result for `O=C(NC1CCc2ccc(C(=O)N3CCC4(CCN(Cc5csnn5)CC4)CC3)cc21)c1cc(Cl)ccc1F` (stereo not drawn) [IND_CC-652, 5-Chloro-2-fluoro-N-[6-[9-([1,2,3]thiadiazol-4-yl-methyl)-3,9-diazaspiro[5.5]undecane-3-carbonyl]-2,3-dihydro-1H-inden-1-yl]-benzamide] reads 53%; that for `O=C(NC1CCc2ccc(C(=O)N3CCC4(CCN(Cc5ccc6nccnc6c5)CC4)CC3)cc21)c1cc(C(F)(F)F)ccc1Cl` (stereo not drawn) [IND_CC-696, 2-Chloro-N-[6-[9-(quinoxalin-6-yl-methyl)-3,9-diazaspiro[5.5]undecane-3-carbonyl]-2,3-dihydro-1H-inden-1-yl]-5-(trifluoromethyl)-benzamide], 102%.
Turning to `COc1ccc(CN2CCC3(CC2)CCN(C(=O)c2ccc4c(c2)C(N(C)C(=O)c2ccccc2Cl)CC4)C3)cc1F` (stereo not drawn) [IND_CC-552, 2-Chloro-N-[6-[8-[(3-fluoro-4-methoxy-phenyl)-methyl]-2,8-diazaspiro[4.5]-decane-2-carbonyl]-2,3-dihydro-1H-inden-1-yl]-N-methyl-benzamide], the inhibition at 10 µM is 68%.
On to `O=C(NC1CCc2ccc(C(=O)N3CCC4(CCN(Cc5c(F)cccc5F)CC4)CC3)cc21)c1cc(C(F)(F)F)ccc1Cl` (stereo not drawn) [IND_CC-644, 2-Chloro-N-[6-[9-[(2,6-difluoro-phenyl)-methyl]-3,9-diazaspiro[5.5]undecane-3-carbonyl]-2,3-dihydro-1H-inden-1-yl]-5-(trifluoromethyl)-benzamide], for which the inhibition at 10 µM was 59%.
